Ends that are not written are not given here.

The nature of data set [1]: Circular dichroism spectroscopy in SDS micelles. Particulars: CD, peptide 30 µM in 80 mM SDS. The format is physicochemical. Here is the method: (§1) The far-ultraviolet circular dichroism (CD) spectra were recorded as described. Phylloseptins-S (30 µM) were solubilized either in 80 mM sodium dodecyl sulfate (SDS) or in phosphate-buffered saline (PBS: 10 mM phosphate, pH 7.3) containing 1 mg/mL of large unilamellar vesicles (LUVs) of 1,2-dimyristoyl-sn-glycero-3-phosphocholine (DMPC) and 1,2-dimyristoyl-sn-glycero-3-phosphoglycerol (DMPG) (3∶1 mol/mol). DMPC and DMPG were purchased from Avanti Polar Lipids, Inc. Each spectrum was the average of four scans. CD measurements are reported as Δ/n, where Δ is the dichroic increment and n is the number of residues in the peptide.
(§2) Figure 6 Circular dichroism spectra of synthetic phylloseptins-S (30 µM). (A) DMPC/DMPG (3∶1) large unilamellar vesicles in PBS (1 mg/mL). (B) 80 mM SDS. CD measurements are reported as the dichroic increment (Δε) per residue.
(Circular dichroism is the unequal absorption of left and right circularly polarised light.)

The nature of data set [2]: Circular dichroism spectroscopy with DMPC/DMPG (3:1) large unilamellar vesicles. Type of data set: physicochemical. Particulars: CD, peptide 30 µM, DMPC/DMPG (3:1) LUVs 1 mg/mL in PBS pH 7.3. The protocol: as §1, §2
For data set [3], the system named is S. aureus ST1065. The data set is described as follows: Permeabilization of the cytoplasmic membrane (ONPG hydrolysis). Type of data set: cell-based. Particulars: ONP production at 405 nm from ONPG; compared with 10 µM dermaseptin B2 as positive control. Here is the method: PLS-induced permeabilization of the cytoplasmic plasma membranes of E. coli ML-35p and S. aureus ST1065 was measured by the rate of production of o-nitrophenol (ONP) at 405 nm, following hydrolysis of o-nitrophenyl β-D-galactopyranoside (ONPG) by β-galactosidase. Dermaseptin B2 (10 µM) and PBS were used as positive and negative controls, respectively.
PLS-induced permeabilization of the cytoplasmic membranes of S. aureus ST1065 and E. coli ML-35p was analyzed by incubating the bacteria, which express β-galactosidase constitutively, with different concentrations of the peptides (S. aureus ST1065: PLS-S1, -S2, and -S4; E. coli ML-35p: PLS-S2 and -S4) and measuring the time-dependent hydrolysis of the small chromogenic substrate o-nitrophenyl-β-D-galactopyranoside (ONPG) into o-nitrophenol (ONP) by cytoplasmic β-galactosidase (Fig. 5). The three peptides permeabilized the bacterial cytoplasmic membrane with increasing severity according to the time and the peptide concentration. […] To investigate the mechanism of permeabilization, E. coli ML-35p were incubated with PLS-S2 (30 and 100 µM) and PLS-S4 (25 and 100 µM) for 60 min and β-galactosidase activity was measured after removing bacteria by centrifugation and adding ONPG to the supernatant.
Figure 5 Kinetics of the cytoplasmic membrane leakage of E. coli ML-35p and S. aureus ST1065 after incubation with different concentrations of active phylloseptins-S. The membrane leakage was determined by measuring the production of o-nitrophenol at 405 nm following hydrolysis of ONPG by the cytoplasmic bacterial β-galactosidase. Data are expressed as the mean ± S.E.M of two experiments carried out in triplicates after subtraction of the negative control values (w/o peptide) from the test values. Control panels display the kinetics obtained without peptide (negative control) and with 10 µM dermaseptin B2 (Drs B2, positive control). For E. coli ML-35p, the extracellular release of β-galactosidase was also measured as the production of o-nitrophenol at 405 nm after incubation (60 min) of E. coli cells with PLS-S2 (30 and 100 µM) and PLS-S4 (25 and 100 µM), removing of bacteria by centrifugation and adding ONPG to the supernatant. The negative (w/o peptide) and positive (10 µM Drs B2) controls are indicated for comparison. Results are expressed as the mean ± S.E.M of one representative experiment performed in triplicates.

Data set [4] concerns human leukemia monocyte cell line THP-1. The data set is described as follows: Cytotoxic activity, MTT. Type of data set: cell-based. As to conditions: for IC50: 72 h, 37°C, RPMI + 10% FCS, peptide 3 to 50 µM, MTT read at 570 nm, average of three independent experiments in triplicates; for LC50: value stated jointly for the three peptides. The protocol:
(§3) Hemolytic assays were performed using fresh human erythrocytes from a healthy donor according to a previously described protocol. Cytotoxic activity of PLS-S was also determined on the human leukemia monocyte cell line THP-1. 80 µL of 6.25×10^5 cells/mL were incubated for 72 h with 20 µL of peptide (3 to 50 µM, final concentrations) at 37°C and 5% CO2 in RPMI medium supplemented with 10% FCS. The cell viability was determined by adding 10 µL of methylthiazolyldiphenyl-tetrazolium bromide (MTT, 10 mg/mL) to the plate. After 4h incubation at 37°C, formazan was solubilized with 100 µL of a solution containing 50% isopropanol and 10% SDS, and the absorbance was measured at 570 nm. The lytic concentration 50 (LC50), which correspond to the peptide concentration producing 50% lysis, was determined with the GraphPad Prism® 5.0 software. Results were expressed as the mean of three independent experiments performed in triplicates.

Data set [5] relates to Leishmania infantum (strain MHOM/MA/67/ITMAP-263) promastigotes. Type of data set: cell-based. Here is the method: The effect of phylloseptins-S was evaluated against several bacterial strains and yeasts (Table 2). Bacteria were cultured in Luria-Bertani broth (LB), whereas yeasts were cultured in Yeast Peptone Dextrose medium (YPD), and minimal inhibitory concentrations (MICs) were determined by measuring the absorbance at 630 nm in 96-well microtitration plates, as described previously. Leishmanicidal activity of phylloseptins-S was also examined against promastigotes of different Leishmania species: Leishmania infantum (strain MHOM/MA/67/ITMAP-263), L. major (MHOM/SU/73/5-ASKH) and L. braziliensis (MHOM/BR/75/M2904). Culture of promastigotes and determination of the growth inhibition were performed as previously described, [22], [23].
Figure 3 Activity of phylloseptins-S against Leishmania infantum promastigotes. IC50 values were determined from a dose-response inhibition fit using GraphPad Prism 5.0 (Table 2). Results represent the mean ± S.E.M. and are representative of three experiments carried out in triplicates.

In data set [6] the test system is S. aureus ST1065. The data set is described as follows: Time-kill assay. Type of data set: cell-based. Particulars: for time to complete killing: peptide at two-fold above the MIC (MIC 6.25 µM), ∼2–3 10^6 cfu/mL in PBS, two experiments in triplicates. Here is the method:
The time-kill kinetics of phylloseptins-S against the Gram-negative bacteria E. coli ML-35p and the Gram-positive strain S. aureus ST1065 were evaluated as previously described with a dose of peptide corresponding to the MIC and two-fold above the MIC. Two experiments were realized in triplicates.
Figure 4 Time-kill curves of PLS-S1 (S1), -S2 (S2), and -S4 (S4). […] Controls correspond to bacteria incubated in PBS without peptide. The data are the means ± S.E.M. of two experiments carried out in triplicates.

The next data set concerns human erythrocytes. The format is cell-based. The protocol:
as §3

FLSMIPHIVSGVAALAKHL-NH2 [PLS-S4]: the helix content is recorded as 59% in data set [1] and 68% in data set [2]. Besides, in the data set on S. aureus ST1065 [3], the “permeabilization of the cytoplasmic membrane (in words)” value (shortened to “permeabilization”) is “as efficient as with dermaseptin-B2”. For the same substance, the IC50 (as a rule, the concentration that gives 50% inhibition) in data set [4] was 23 µM; in data set [5], 22 µM. For the same substance, in data set [4], the LC50 – broadly, the concentration that kills 50% of the test population – came out at 23 µM. Further, in the data set with S. aureus ST1065 [6] (compared with PLS-S1 and -S2, MIC and two-fold above the MIC, in PBS), the “killing kinetics (in words)” value was “slower”. The “LC50 (peptide concentration producing 50% lysis)” value in the data set on human erythrocytes is 33 µM.
For FLSLIPHIVSGVASLAKHF-NH2 [PLS-S2], the helix content in data set [1] was 65%; in data set [2] it was 80%. The “permeabilization” value in the data set with S. aureus ST1065 [3] was “as efficient as with dermaseptin-B2”. Further, the IC50 in data set [4] turned out to be 22.5 µM; in data set [5] it was 18.5 µM. This substance also yielded an LC50 in data set [4] of 23 µM. For the same substance, in the data set on S. aureus ST1065 [6], the “time to complete killing” value is reported as ≤ 5 min. The “LC50 (peptide concentration producing 50% lysis)” value with human erythrocytes was determined as 25 µM.
Regarding FLSLIPHIVSGVASIAKHF-NH2 [PLS-S1], the values for the helix content in data set [1] and in data set [2] were 96% and 70%, respectively. The “permeabilization” value with S. aureus ST1065 [3] was “as efficient as with dermaseptin-B2”. The figures for the IC50 in data set [4] and in data set [5] were 23 µM and 16.5 µM, respectively. In data set [4], this substance gave an LC50 of 23 µM. The “time to complete killing” value with S. aureus ST1065 [6] is reported as ≤ 5 min. For the same substance, the “LC50 (peptide concentration producing 50% lysis)” value with human erythrocytes worked out at 39 µM.
